Laboratory results reported in PubChem BioAssay (NCI).
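The concentration for 50% growth inhibition is given as GI50. TGI: concentration producing complete growth inhibition.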

Key:
Assay in all cases: DTP human tumour cell line panel, 384-well format
[1] = tested on: SW-620 colon
[2] = tested on: OVCAR-4 ovarian
[3] = tested on: HT29 colon
[4] = tested on: EKVX NSCLC
[5] = tested on: M14 melanoma
[6] = tested on: NCI-H322M lung
[7] = tested on: HS 578T breast
[8] = tested on: U251 glioblastoma
[9] = tested on: MDA-MB-468 breast
[10] = tested on: MDA-MB-435 melanoma
[11] = tested on: HL-60(TB) leukemia
[12] = tested on: LOX IMVI melanoma
[13] = tested on: OVCAR-3 ovarian
[14] = tested on: UO-31 renal
[15] = tested on: SF-295 CNS
[16] = tested on: DU-145 prostate
[17] = tested on: MCF7 breast
[18] = tested on: SK-OV-3 ovarian
[19] = tested on: SK-MEL-5 melanoma
[20] = tested on: SK-MEL-2 melanoma
[21] = tested on: T-47D breast
[22] = tested on: MALME-3M melanoma
[23] = tested on: HOP-92 NSCLC
[24] = tested on: BT-549 breast
[25] = tested on: KM12 colon
[26] = tested on: NCI-H522 lung
[27] = tested on: K-562 leukemia
[28] = tested on: MOLT-4 leukemia
[29] = tested on: NCI/ADR-RES ovarian
[30] = tested on: NCI-H460 NSCLC
[31] = tested on: NCI-H23 lung
[32] = tested on: SK-MEL-28 melanoma
[33] = tested on: IGROV1 ovarian
[34] = tested on: COLO 205 colon
[35] = tested on: A549 NSCLC
[36] = tested on: SF-268 CNS
[37] = tested on: NCI-H226 lung
[38] = tested on: CCRF-CEM leukemia
[39] = tested on: CAKI-1 renal
[40] = tested on: OVCAR-5 ovarian
[41] = tested on: 786-0 renal
[42] = tested on: SNB-75 CNS
[43] = tested on: HCT-15 colon
[44] = tested on: SN12C renal
[45] = tested on: UACC-62 melanoma
[46] = tested on: SR leukemia
[47] = tested on: PC-3 prostate

In the case of C[C@@H](C(=O)Nc1ccc(Cl)cc1)C1CCC(c2ccnc3ccc(F)cc23)CC1 (some centres undefined), the GI50 [1] is reported as 8.3 µM, the TGI [1] is reported as 22.6 µM and the GI50 [2] is reported as 13.9 µM. For the same compound, the TGI [2] was 50.2 µM, the GI50 [3] was 9.74 µM and the TGI [3] was 23.1 µM. For the same compound, the GI50 [4] was 4.09 µM, the TGI [4] was 18.7 µM and the GI50 [5] was 13 µM. It also gave a TGI [5] of 40.8 µM, a GI50 [6] of 17.7 µM and a TGI [6] of 78.2 µM. For the same compound, the GI50 [7] was 12.7 µM, the TGI [7] was 27.4 µM and the GI50 [8] was 9.96 µM. It also gave a TGI [8] of 26.2 µM, a GI50 [9] of 2.17 µM and a TGI [9] of 8.1 µM. It also gave a GI50 [10] of 16.9 µM, a TGI [10] of 36.7 µM and a GI50 [11] of 1.35 µM. It also gave a TGI [11] of 2.9 µM, a GI50 [12] of 8.67 µM and a TGI [12] of 21.2 µM. The GI50 [13] was 7.15 µM, the TGI [13] was 19.9 µM and the GI50 [14] was 15.8 µM. For the same compound, the TGI [14] was 83.2 µM, the GI50 [15] was 10 µM and the TGI [15] was 31.1 µM. It also gave a GI50 [16] of 8.74 µM, a TGI [16] of 33.2 µM and a GI50 [17] of 7.97 µM. It also gave a TGI [17] of 25.7 µM, a GI50 [18] of 16.3 µM and a TGI [18] of 42.7 µM. The GI50 [19] was 4.31 µM, the TGI [19] was 16.2 µM and the GI50 [20] was 3.07 µM. The TGI [20] was 10.2 µM, the GI50 [21] was 4.42 µM and the TGI [21] was 25.2 µM. For the same compound, the GI50 [22] was 15.3 µM, the TGI [22] was 37.5 µM and the GI50 [23] was 8.04 µM. It also gave a TGI [23] of 29.4 µM, a GI50 [24] of 7.14 µM and a TGI [24] of 20.6 µM. The GI50 [25] was 5.81 µM, the TGI [25] was 19.8 µM and the GI50 [26] was 3.24 µM. It also gave a TGI [26] of 15.9 µM, a GI50 [27] of 3.38 µM and a TGI [27] of 13.7 µM. The GI50 [28] was 2.22 µM, the TGI [28] was 6.85 µM and the GI50 [29] was 5.62 µM. For the same compound, the TGI [29] was 22 µM, the GI50 [30] was 2.85 µM and the TGI [30] was 8.81 µM. For the same compound, the GI50 [31] was 3.76 µM, the TGI [31] was 16 µM and the GI50 [32] was 20.6 µM. For the same compound, the TGI [32] was > 92 µM, the GI50 [33] was 8.55 µM and the TGI [33] was > 47.7 µM. For the same compound, the GI50 [34] was 17.4 µM, the TGI [34] was > 62.3 µM and the GI50 [35] was 6.9 µM. The TGI [35] was 66.5 µM, the GI50 [36] was 6.42 µM and the TGI [36] was 22.7 µM. For the same compound, the GI50 [37] was 12.2 µM, the TGI [37] was 28 µM and the GI50 [38] was 2.64 µM. It also gave a TGI [38] of 7.41 µM, a GI50 [39] of 19.2 µM and a TGI [39] of 54.7 µM. For the same compound, the GI50 [40] was 13 µM, the TGI [40] was 35.3 µM and the GI50 [41] was 10.8 µM. It also gave a TGI [41] of 27 µM, a GI50 [42] of 14.7 µM and a TGI [42] of 37.9 µM. The GI50 [43] was 11.8 µM, the TGI [43] was 25.6 µM and the GI50 [44] was 12.7 µM. For the same compound, the TGI [44] was 28.2 µM, the GI50 [45] was 14.9 µM and the TGI [45] was 29.3 µM. For the same compound, the GI50 [46] was 0.584 µM, the TGI [46] was 1.46 µM and the GI50 [47] was 5.72 µM. The TGI [47] was 19 µM.
